Patent US20190209548A1, “LINKED DIARYL COMPOUNDS WITH ANTICANCER PROPERTIES AND METHODS OF USING THE SAME” (University of Maryland, College Park, priority 2014, published 2019)
Values joined by “and” are separate entries in the source; they are usually repeats but may differ in a detail not shown here. Identical values can stand only once. Like-named read-outs stand apart in the source and are kept apart here.

Experiments:
c-kit1 = test: 1H-NMR of c-kit1 with ligand; assay type: binding; details: ligand 150 μM, DNA 300 μM
Protocol: (§1) NMR measurements for DNA binding of triazene ligands. The procedure was followed as described previously. The ligand concentration was 150 μM, and that of the DNA (c-kit1 or 8 bp AT) was […]. The buffer used was 10 mM potassium phosphate (pH 7.5) containing 137 mM NaCl, 1 mM EDTA, and also contained 10% D2O. The sample was initially heated up to 95° C. for 5 min without the ligand and then cooled down to room temperature in 15 min. Subsequently, the sample was incubated at 4° C. for ˜12 h without the ligand (for G-quadruplex formation). Then, the ligand was added and incubated for 2 h before the NMR measurement (25° C.).
(§2) NMR of DNA/DNA analogue complexes. NMR of spectra (c-kit1 or 8 bp A T) in absence or presence of ligands were obtained following precedent. The sample solution containing c-kit1 (300 μM), D2O (10%, v/v), NaCl (137 mM), EDTA (1 mM) and potassium phosphate buffer (10 mM, pH 7.5) was heated up to 95° C. for 5 min, then cooled down to room temperature, and subsequently incubated for another 12 hours at 4° C. The DMZ analogue (150 μM) was then added and incubated for 2 hours at 4° C. The ^1H NMR spectra were recorded at 25° C., using NaOAc as an internal standard (NaOAc was in a sealed capillary tube that was inserted in the NMR tube). The ^1H NMR spectra was recorded on Bruker Avance III HD 800 MHz spectrometer with a CPQCI cryoprobe.

8 bp AT = test: 1H-NMR of duplex DNA with ligand; assay type: binding; details: ligand 150 μM, DNA 300 μM
Protocol: as §1, §2

F21T = test: FRET melting assay, F21T; assay type: binding; details: dual-labeled DNA 0.2 μM, DMZ analogues 1 μM, potassium cacodylate 60 mM pH 7.2
Protocol: (§3) Fluorescence resonance energy transfer (FRET) assay to determine Tm in absence and presence of ligands. Dual-labelled DNA was diluted from stock (50 μM) to 400 nM in 60 mM potassium cacodylate buffer (pH 7.2) and then annealed by heating at 85° C. for 10 min followed by cooling to room temperature in the heating block. Compounds were diluted from stock (20 mM in DMSO) to 2 μM in 60 mM cacodylate buffer (pH 7.2). 25 μL annealed DNA was added to 96-well plate followed by 25 μL diluted compounds. The sequences of labelled oligonucleotides were as follows: F21T 21-mer (5′-FAM-GGGTTAGGGTTAGGGTTAGGG-TAMRA-3′) (SEQ ID NO:11), c-kit2 26-mer (5′-FAM-CCCGGGCGGGCGCGAGGGAGGGGAGG-TAMRA-3′) (SEQ ID NO:12), k-RAS21R 21-mer (5′-FAM-AGGGCGGTGTGGGAAGAGGGA-TAMRA-3′) (SEQ ID NO:13), c-MYC 22-mer (5′-FAM-TGAGGGTGGGTAGGGTGGGTAA-TAMRA-3′) (SEQ ID NO:14) and duplex 26-mer (5′-FAM-TATAGCTATATTTTTTTATAGCTATA-TAMRA-3′) (SEQ ID NO: 15). Measurements were made in triplicate by using a LightCycler 480 System RT-PCR machine (Roche) and average values were reported. Fluorescence readings were made with excitation at 450-495 nm and detection at 515-545 nm, taken at intervals of 1.2° C./min in the range 25° C. to 95° C.

c-MYC = test: FRET melting assay, c-MYC; assay type: binding; details: dual-labeled DNA 0.2 μM, DMZ analogues 1 μM, potassium cacodylate 60 mM pH 7.2
Protocol: as §3

c-kit2 = test: FRET melting assay, c-kit2; assay type: binding; details: dual-labeled DNA 0.2 μM, DMZ analogues 1 μM, potassium cacodylate 60 mM pH 7.2
Protocol: as §3

k-RAS21R = test: FRET melting assay, k-RAS21R; assay type: binding; details: dual-labeled DNA 0.2 μM, DMZ analogues 1 μM, potassium cacodylate 60 mM pH 7.2
Protocol: as §3

OVCAR-3 = test: WST-1 IC50 determination, OVCAR-3; assay type: cell-based, human; details: 72 hours, WST-1; for IC50: read-out: Anticancer activity IC50 ± SD, OVCAR-3
Protocol: (§4) Cell lines and culturing. The following human cell lines were purchased from ATCC (ATCC, Manassas, Va.): prostate cancer cells (PC-3), triple negative breast cancer cells (MDA-MB-231), ovarian cancer cells (OVCAR-3), normal bone marrow (NBM) and normal fibroblast cells (MCR5A). MDA-MB-231 cells were grown at 37° C. with 5% CO2 atmosphere with DMEM (Life technologies, Carlsbad, Calif.) supplemented with heat-inactivated 10% (V/V) fetal bovine serum. OVCAR-3 and PC-3 cells were grown at 37° C. with 5% CO2 atmosphere with RPMI (Life technologies, Carlsbad, Calif.) supplemented with heat-inactivated 10% (V/V) fetal bovine serum. Cell lines were grown and maintained according to ATCC recommendations.
(§5) IC50 determination. Cell lines were seeded into 96-well plates the afternoon prior to treatment. Cell seeding number was determined by growing cells in log phase growth during drug treatment. Approximately 18 hours later, compounds were semi-serially diluted in dimethyl sulfoxide (DMSO) and then growth medium, and added to cells. Plates were incubated for 72 hours prior to addition of WST-1 (Promega, Madison Wis.). Plates were read after 4 additional hours of incubation at 37° C. using a Bio-Tek Synergy HT plate reader (Bio-Tek, Winooski, Vt.). Data was analyzed, graphed and IC50s generated using GraphPad Prism Software (Graphpad, La Jolla, Calif.).
(§6) IC50 determination: For the determination of IC50 for the azolamide class, the same protocol as described previously was followed.

PC-3 = test: WST-1 IC50 determination, PC-3; assay type: cell-based, human; details: 72 hours, WST-1; for IC50: read-out: Anticancer activity IC50 ± SD, PC-3
Protocol: as §4, §5, §6

MDA-MB-231 = test: WST-1 IC50 determination, MDA-MB-231; assay type: cell-based, human; details: 72 hours, WST-1; for IC50: read-out: Anticancer activity IC50 ± SD, MDA-MB-231
Protocol: as §4, §5, §6

duplex = test: FRET melting assay, duplex DNA; assay type: binding; details: dual-labeled DNA 0.2 μM, DMZ analogues 1 μM, potassium cacodylate 60 mM pH 7.2
Protocol: as §3

c-MYC Pu27 = test: PCR stop assay, Pu27 template; assay type: biochemical
Protocol: (§7) PCR Stop Assay. This assay was performed by modifying a previously published protocol.
(§8) To the PCR reaction mixture (25 μL), 1×PCR buffer (New England Biolabs), 5 μM Pu27 and Pu27rev oligomers, various concentrations of ligands (DMZ, TMPyP4, DMZ1, DMZ9 and DMZ13) were added and incubated at 4° C. for 6 h. After that, 1 mM dNTPs, 5 units of Taq DNA polymerase (New England Biolabs) were added and PCR reactions were performed in a thermocycler, with the following conditions: 94° C. for 3 min, followed by 20 repeated cycles each having 94° C. for 30 s, 58° C. for 30 s, and 72° C. for 30 s. After PCR, amplified products were analyzed on 12% polyacrylamide gel with 1×TBE and SYBR Gold stained. This assay was also performed under the same conditions with Pu27-13,14 and Pu27rev.

Pu27-13,14 = test: PCR stop assay, mutated control template; assay type: biochemical
Protocol: as §7, §8

SMILES	change of c-kit1 imino proton NMR spectrum (c-kit1)	change of duplex DNA imino proton NMR spectrum (8 bp AT)	ΔTm F21T (F21T)	ΔTm c-MYC (c-MYC)	ΔTm c-kit2 (c-kit2)	ΔTm k-RAS21R (k-RAS21R)	Anticancer activity IC50 ± SD, OVCAR-3 (OVCAR-3)	Anticancer activity IC50 ± SD, PC-3 (PC-3)	Anticancer activity IC50 ± SD, MDA-MB-231 (MDA-MB-231)	ΔTm duplex (duplex)	IC50 (OVCAR-3)	IC50 (PC-3)	IC50 (MDA-MB-231)	polymerization/extension of oligomers Pu27 and Pu27rev (c-MYC Pu27; 100 μM compound)	PCR product with non-G-quadruplex template (Pu27-13,14; 100 μM compound)	IC50 (OVCAR-3; Homo sapiens, OVCAR-3)	polymerization/extension of oligomers Pu27 and Pu27rev (c-MYC Pu27; 25 μM compound)	PCR product with non-G-quadruplex template (Pu27-13,14; 25 μM compound)
N=C(N)c1ccc(NN=Nc2ccccc2)cc1 [DMZ1]	direct binding	only DMZ (but not Triazene-1) showed considerable changes	4.20 ± 0.00 °C	7.87 ± 0.53 °C	6.40 ± 0.26 °C	5.47 ± 0.93 °C	NE (NE means not effective. Cell viability was the same or greater than 75% of the DMSO control at 20 μM compound concentration.)	NE (NE means not effective. Cell viability was the same or greater than 75% of the DMSO control at 20 μM compound concentration.)	NE (NE means not effective. Cell viability was the same or greater than 75% of the DMSO control at 20 μM compound concentration.)	–	–	–	–	–	–	–	–	–
N=C(N)c1ccc(N=NNc2cccc(C#Cc3ccc(F)cc3)c2)cc1 [DMZ9]	changes in peak positions and shapes	no change was observed	4.20 ± 0.00 °C	8.22 ± 0.45 °C	5.67 ± 0.26 °C	6.58 ± 1.29 °C	–	–	–	NE (NE means not effective binding (ΔTm < 1° C.))	5 ± 0.1 µM	5.3 ± 1.6 µM	5.5 ± 0.1 µM	completely inhibited	amplified PCR product was observed	–	–	–
N=C(N)c1ccc(/N=N/Nc2ccccc2C#Cc2ccc(F)cc2)cc1 [DMZ13]	changes in peak positions and shapes	no change was observed	4.20 ± 0.00 °C	7.15 ± 0.00 °C	5.12 ± 0.26 °C	2.01 ± 0.00 °C	–	–	–	NE (NE means not effective binding (ΔTm < 1° C.))	9.5 ± 2.2 µM	7.4 ± 0.2 µM	6.2 ± 1 µM	completely inhibited	amplified PCR product was observed	–	–	–
N=C(N)c1ccc(/N=N/Nc2ccc(C(=N)N)cc2)cc1 [DMZ, Diminazene aceturate, reference compound]	direct binding	considerable changes in the imino region	10.05 ± 0.52 °C	12.97 ± 0.26 °C	11.70 ± 0.26 °C	18.3 °C and 18.27 ± 0.52 °C	–	NE (NE means not effective. Cell viability was the same or greater than 75% of the DMSO control at 20 μM compound concentration.)	NE (NE means not effective. Cell viability was the same or greater than 75% of the DMSO control at 20 μM compound concentration.)	6.4 °C	–	–	–	–	–	> 25 µM	showed inhibition	amplified PCR product was observed
